Data taken from patent US12419873B2, “Use of JAK inhibitors in preparation of drugs for treating JAK kinase-related diseases” (ZHUHAI UNITED LABORATORIES CO., LTD., priority 2020, dated 2025).
Values belong to the compound of their own block, whether it stands above or below them.

What was measured:
TYK2 = TYK2 (Homo sapiens (Human), UniProt P29597); experiment: In vitro activity test of TYK2 kinase; type: biochemical
Procedure: (§1) Recombinant human JAK1, JAK2, JAK3, TyK2 protease, main instruments and reagents were provided by Eurofins in the UK
(§2) All compounds were prepared into a 100% DMSO solution and reached 50 times the final determined concentration. The test compound was diluted by 3 times the concentration gradient, and the final concentration was 10 μM to 0.001 μM, 9 concentrations in total, and the content of DMSO in the detection reaction was 2%. The working stock solution of the compound was added to a determination hole as the first component of the reaction, and then the remaining components were added according to the detailed scheme determination below.
(§3) Mg/ATP mixture was added to start the reaction. After incubation at room temperature for 40 minutes, 0.5% phosphoric acid was added to stop the reaction.

JAK3 = JAK3 (Homo sapiens (Human), UniProt P52333); experiment: In vitro activity test of JAK3 kinase; type: biochemical
JAK3, sequence (P52333 whole entry): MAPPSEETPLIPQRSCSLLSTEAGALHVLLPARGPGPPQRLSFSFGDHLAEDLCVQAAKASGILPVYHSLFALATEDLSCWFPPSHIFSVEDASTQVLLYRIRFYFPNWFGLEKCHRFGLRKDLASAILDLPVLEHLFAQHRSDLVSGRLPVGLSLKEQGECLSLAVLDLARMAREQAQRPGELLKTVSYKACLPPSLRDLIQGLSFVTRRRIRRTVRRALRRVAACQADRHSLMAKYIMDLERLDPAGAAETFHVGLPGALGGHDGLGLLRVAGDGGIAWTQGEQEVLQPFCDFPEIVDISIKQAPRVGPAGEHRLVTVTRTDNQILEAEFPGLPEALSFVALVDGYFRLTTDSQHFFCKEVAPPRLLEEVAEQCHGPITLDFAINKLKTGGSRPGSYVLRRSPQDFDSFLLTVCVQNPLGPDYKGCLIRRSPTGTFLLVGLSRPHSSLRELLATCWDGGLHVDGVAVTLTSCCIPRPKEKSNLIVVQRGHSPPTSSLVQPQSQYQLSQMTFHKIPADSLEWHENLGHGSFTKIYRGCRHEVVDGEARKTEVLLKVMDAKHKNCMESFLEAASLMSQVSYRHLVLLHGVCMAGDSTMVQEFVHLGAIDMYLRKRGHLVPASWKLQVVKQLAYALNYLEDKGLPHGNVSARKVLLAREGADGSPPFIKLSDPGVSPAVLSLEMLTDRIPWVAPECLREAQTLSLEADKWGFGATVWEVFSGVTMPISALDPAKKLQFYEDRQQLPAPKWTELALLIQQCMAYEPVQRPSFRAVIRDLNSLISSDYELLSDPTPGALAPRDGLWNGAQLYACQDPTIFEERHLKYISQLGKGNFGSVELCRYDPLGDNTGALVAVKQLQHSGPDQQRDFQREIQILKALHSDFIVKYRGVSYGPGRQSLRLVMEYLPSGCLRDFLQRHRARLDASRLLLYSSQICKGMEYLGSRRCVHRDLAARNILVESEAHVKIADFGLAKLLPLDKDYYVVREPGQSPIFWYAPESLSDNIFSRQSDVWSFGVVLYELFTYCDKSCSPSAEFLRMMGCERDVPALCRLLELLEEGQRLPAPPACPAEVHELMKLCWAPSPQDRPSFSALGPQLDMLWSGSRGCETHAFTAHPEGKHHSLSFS
Procedure: as §1, §2, §3

JAK1 = JAK1 (Homo sapiens (Human), UniProt P23458); experiment: In vitro activity test of JAK1 kinase; type: biochemical
JAK1, sequence (P23458 whole entry): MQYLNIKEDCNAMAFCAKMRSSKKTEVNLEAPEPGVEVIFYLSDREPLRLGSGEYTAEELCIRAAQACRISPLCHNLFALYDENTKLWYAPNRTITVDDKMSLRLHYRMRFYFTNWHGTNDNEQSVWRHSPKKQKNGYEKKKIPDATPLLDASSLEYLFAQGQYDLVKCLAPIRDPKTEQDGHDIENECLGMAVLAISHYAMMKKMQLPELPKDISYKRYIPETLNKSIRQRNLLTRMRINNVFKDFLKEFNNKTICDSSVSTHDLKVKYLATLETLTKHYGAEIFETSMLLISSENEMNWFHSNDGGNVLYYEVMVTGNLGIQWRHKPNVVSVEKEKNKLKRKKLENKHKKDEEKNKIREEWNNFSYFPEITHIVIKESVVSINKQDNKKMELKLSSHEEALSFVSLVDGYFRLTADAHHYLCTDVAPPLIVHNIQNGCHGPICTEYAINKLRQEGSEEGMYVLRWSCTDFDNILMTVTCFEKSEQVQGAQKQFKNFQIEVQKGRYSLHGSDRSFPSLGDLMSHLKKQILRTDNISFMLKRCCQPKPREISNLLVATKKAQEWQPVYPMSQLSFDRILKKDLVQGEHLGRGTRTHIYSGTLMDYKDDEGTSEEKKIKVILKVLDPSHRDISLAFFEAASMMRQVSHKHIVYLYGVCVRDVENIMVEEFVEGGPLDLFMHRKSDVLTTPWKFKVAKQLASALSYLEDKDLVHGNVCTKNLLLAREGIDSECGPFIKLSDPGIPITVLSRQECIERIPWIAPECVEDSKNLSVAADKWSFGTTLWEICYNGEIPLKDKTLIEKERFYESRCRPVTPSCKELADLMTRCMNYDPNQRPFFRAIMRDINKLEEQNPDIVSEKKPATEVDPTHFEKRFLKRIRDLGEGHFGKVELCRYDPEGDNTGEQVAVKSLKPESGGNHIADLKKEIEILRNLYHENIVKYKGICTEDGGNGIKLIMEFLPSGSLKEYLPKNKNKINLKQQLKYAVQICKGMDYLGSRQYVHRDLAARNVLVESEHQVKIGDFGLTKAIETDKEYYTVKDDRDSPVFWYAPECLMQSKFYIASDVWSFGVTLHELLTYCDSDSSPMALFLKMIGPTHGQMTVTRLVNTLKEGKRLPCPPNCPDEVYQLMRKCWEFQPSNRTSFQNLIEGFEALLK
Procedure: as §1, §2, §3

JAK2 = JAK2 (Homo sapiens (Human), UniProt O60674); experiment: In vitro activity test of JAK2 kinase; conditions: read-out: JAK2 (IC50)
JAK2, sequence (O60674 whole entry): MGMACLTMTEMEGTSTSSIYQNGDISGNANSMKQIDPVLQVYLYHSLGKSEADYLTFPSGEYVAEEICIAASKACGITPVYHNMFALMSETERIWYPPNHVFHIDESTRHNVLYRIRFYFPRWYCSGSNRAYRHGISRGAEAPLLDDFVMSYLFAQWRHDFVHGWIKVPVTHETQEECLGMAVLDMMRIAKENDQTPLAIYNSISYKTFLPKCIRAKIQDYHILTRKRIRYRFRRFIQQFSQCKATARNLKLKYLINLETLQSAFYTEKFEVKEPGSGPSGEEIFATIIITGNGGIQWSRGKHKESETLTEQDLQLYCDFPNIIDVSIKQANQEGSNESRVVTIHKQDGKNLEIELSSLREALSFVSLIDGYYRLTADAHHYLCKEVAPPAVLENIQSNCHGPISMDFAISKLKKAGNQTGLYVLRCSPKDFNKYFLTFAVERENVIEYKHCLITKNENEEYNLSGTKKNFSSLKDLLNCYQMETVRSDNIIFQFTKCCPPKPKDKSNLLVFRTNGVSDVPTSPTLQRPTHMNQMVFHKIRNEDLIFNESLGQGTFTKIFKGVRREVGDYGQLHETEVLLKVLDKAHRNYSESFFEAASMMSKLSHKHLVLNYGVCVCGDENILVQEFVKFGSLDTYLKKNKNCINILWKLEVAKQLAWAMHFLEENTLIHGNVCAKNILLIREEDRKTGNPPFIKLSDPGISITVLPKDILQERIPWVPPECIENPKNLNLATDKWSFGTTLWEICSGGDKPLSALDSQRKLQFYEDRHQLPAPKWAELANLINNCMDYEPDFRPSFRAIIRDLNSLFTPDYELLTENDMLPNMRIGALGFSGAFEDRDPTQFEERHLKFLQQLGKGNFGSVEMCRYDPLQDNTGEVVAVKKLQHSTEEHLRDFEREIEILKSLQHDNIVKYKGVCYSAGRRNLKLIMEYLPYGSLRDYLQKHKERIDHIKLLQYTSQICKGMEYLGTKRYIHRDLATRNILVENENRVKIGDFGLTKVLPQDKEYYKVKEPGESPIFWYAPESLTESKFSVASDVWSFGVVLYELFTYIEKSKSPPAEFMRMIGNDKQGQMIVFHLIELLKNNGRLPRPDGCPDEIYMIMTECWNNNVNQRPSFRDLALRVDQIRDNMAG

[1] = system: DSS induced ulcerative colitis and Crohn's disease in mice; experiment: In vivo pharmacodynamic study on DSS induced inflammatory bowel disease (IBD) in mice; set-up: species or system mice (C57BL/6); Colon length: unit not given here
From the text: Inflammatory bowl disease (IBD) is a kind of recurrent disease. It is difficult to cure, has a high recurrence rate, and has a poor prognosis, it has a certain correlation with the incidence of colon cancer. The development of drugs for the treatment of IBD will help alleviate the symptoms of ulcerative colitis and Crohn's disease and improve the quality of life of patients. The mouse inflammation model induced by dextran sulfate sodium (DSS) is similar to the human disease ulcerative colitis and Crohn's disease. It is a common classical model for preclinical evaluation of drug efficacy.
Preparation method of DSS: 20 g DSS was weighed, 1000 mL drinking water was added to form 2% DSS solution, and stored in a 4° C. refrigerator. It is effective within one month.
Preparation method of a solvent: Vehicle solution is an aqueous solution containing 0.5% methylcellulose and 0.5% Tween 80. Firstly, 5 g of methylcellulose was dissolved in 990 mL of pure water, then 5 g of Tween 80 was added in small amount for many times, mixed evenly and stored at room temperature.
Preparation method of compounds: the compound was weighed, an aqueous solution with a mass ratio of 0.5% methylcellulose+0.5% Tween 80 was added, and it was processed by ultrasonic until it was dissolved.
The adaptation period of the animals was 3 days. After adaptation, the animals were weighed every day. The blank group was given drinking water, and the other groups were given drinking water containing 2% DSS. The water volume was 5 mL/animal/day. The animals in the test drug group were administrated by gavage once a day. The blank group and […] group were given the same volume of vehicle, with the administration volume of 10 mL/kg. Every other day, the fecal viscosity was evaluated, feces were collected for fecal occult blood detection, and the disease activity index (DAI) score was calculated. DSS consumption was detected every day. Fresh DSS solution was replaced every two days. The dosing cycle was continuous intragastric administration for 7 days, followed by 4 days of drug withdrawal, followed by 7 days of continuous intragastric administration. Normal drinking water was changed when intragastric administration was stopped.
DAI is the sum of the scores of body weight, fecal viscosity and fecal occult blood. Among them, the semi quantitative detection method of piramine cave was adopted for detecting fecal occult blood, including adding piramine cave to the sample first, then adding hydrogen peroxide and ethanol solution, and reading and scoring the color within 2 min. Immediately generating purple blue is marked as 4+, generating the purple blue within 10 s is marked as 3+, generating purple red within 1 min is marked as 2+, and gradually generating the purple red within 1-2 min is marked as 1+, and generating no color reaction of purple orchid or purple red within the reading time is recorded as negative (−). After the experiment, the colon and spleen were taken, and the length of colon and the weight of spleen were measured. The spleen index was the ratio of spleen weight to body weight.

[2] = day 2, 30 mg/kg p.o. qd, Mean±SEM
[3] = day 4, 30 mg/kg p.o. qd, Mean±SEM
[4] = day 6, 30 mg/kg p.o. qd, Mean±SEM
[5] = day 8, 30 mg/kg p.o. qd, Mean±SEM
[6] = day 12, 30 mg/kg p.o. qd, Mean±SEM
[7] = day 14, 30 mg/kg p.o. qd, Mean±SEM
[8] = day 16, 30 mg/kg p.o. qd, Mean±SEM
[9] = day 18, 30 mg/kg p.o. qd, Mean±SEM

TYK2, sequence (P29597 whole entry): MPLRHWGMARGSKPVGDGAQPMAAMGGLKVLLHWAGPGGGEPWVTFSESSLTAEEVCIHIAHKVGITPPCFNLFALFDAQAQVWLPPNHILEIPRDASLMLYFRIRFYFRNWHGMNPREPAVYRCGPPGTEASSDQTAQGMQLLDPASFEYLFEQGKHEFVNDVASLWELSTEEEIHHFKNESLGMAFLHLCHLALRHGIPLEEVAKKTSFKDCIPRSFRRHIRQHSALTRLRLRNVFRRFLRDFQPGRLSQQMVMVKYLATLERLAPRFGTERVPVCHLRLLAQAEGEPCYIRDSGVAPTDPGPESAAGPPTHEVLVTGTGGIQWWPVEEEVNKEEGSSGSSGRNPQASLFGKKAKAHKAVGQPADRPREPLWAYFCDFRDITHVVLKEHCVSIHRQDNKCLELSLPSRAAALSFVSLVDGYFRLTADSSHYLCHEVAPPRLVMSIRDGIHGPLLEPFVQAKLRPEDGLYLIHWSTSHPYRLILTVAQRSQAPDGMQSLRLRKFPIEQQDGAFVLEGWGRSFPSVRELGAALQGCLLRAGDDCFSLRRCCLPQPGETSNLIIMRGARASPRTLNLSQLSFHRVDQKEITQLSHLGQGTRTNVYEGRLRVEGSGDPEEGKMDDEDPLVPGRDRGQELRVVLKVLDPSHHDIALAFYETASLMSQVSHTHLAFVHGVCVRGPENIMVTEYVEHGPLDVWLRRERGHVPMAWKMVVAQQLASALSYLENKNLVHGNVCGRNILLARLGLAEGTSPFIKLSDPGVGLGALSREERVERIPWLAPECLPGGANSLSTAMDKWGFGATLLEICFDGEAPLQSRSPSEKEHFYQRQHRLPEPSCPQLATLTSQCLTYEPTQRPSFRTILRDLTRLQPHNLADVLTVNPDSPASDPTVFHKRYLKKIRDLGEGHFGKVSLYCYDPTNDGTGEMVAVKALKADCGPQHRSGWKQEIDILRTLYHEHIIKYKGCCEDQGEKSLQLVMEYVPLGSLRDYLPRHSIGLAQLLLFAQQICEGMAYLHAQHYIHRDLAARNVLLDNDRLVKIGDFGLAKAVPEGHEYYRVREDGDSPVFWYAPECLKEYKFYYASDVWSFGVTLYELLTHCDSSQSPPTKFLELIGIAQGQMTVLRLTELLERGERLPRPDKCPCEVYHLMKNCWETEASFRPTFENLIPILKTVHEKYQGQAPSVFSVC

- IC50 (TYK2): 830 nM
- IC50 (JAK3): > 10000 nM
- IC50 (JAK1): 63 nM
Structure (SMILES): O=C(Nc1nc2cccc([C@H]3CCC4(C3)CN(C(=O)[C@@H]3CC3(F)F)C4)n2n1)C1CC1 (single isomer, unassigned) [Compound 7-7]

- IC50 (TYK2): 1390 nM
- IC50 (JAK3): > 10000 nM
- IC50 (JAK1): 432 nM
- IC50 (JAK2): 1170 nM
Structure (SMILES): N#CCN1CC2(CCC(c3cccc4nc(NC(=O)[C@@H]5CC5(F)F)nn34)CC2)C1 [Compound 9-6]

Structure (SMILES): O=C(Nc1nc2cccc(-c3ccc(CN4CCS(=O)(=O)CC4)cc3)n2n1)C1CC1 [Filgotinib, reference compound]
- Colon shortening caused by DSS, compared with DSS group (in words) ([1]; 30 mg/kg p.o.): can reduce colon shortening
- Increase of spleen index induced by DSS (in words) ([1]; 30 mg/kg p.o.): could reduce the increase of spleen index
- Significance of inhibition of spleen index increase ([1]; 30 mg/kg p.o., vs DSS group): significant inhibitory effect
- Colon length ([1]; after the experiment, 30 mg/kg p.o. qd, Mean±SEM): 3.13 ± 0.10
- Weight of mice ([1]; day 1, 30 mg/kg p.o. qd, Mean±SEM): 22.10 ± 0.42
- DAI score [1, 2]: 1.20 ± 0.42
- Weight of mice [1, 2]: 22.35 ± 0.41
- Weight of mice ([1]; day 3, 30 mg/kg p.o. qd, Mean±SEM): 22.11 ± 0.31
- DAI score [1, 3]: 2.20 ± 0.61
- Weight of mice [1, 3]: 22.07 ± 0.38
- Weight of mice ([1]; day 5, 30 mg/kg p.o. qd, Mean±SEM): 21.61 ± 0.47
- DAI score [1, 4]: 2.90 ± 0.43
- Weight of mice [1, 4]: 21.21 ± 0.55
- Weight of mice ([1]; day 7, 30 mg/kg p.o. qd, Mean±SEM): 20.28 ± 0.47
- DAI score [1, 5]: 6.40 ± 0.69
- Weight of mice [1, 5]: 19.65 ± 0.47
- Weight of mice ([1]; day 9, 30 mg/kg p.o. qd, Mean±SEM): 18.57 ± 0.49
- Weight of mice ([1]; day 10, 30 mg/kg p.o. qd, Mean±SEM): 17.98 ± 0.62
- Weight of mice ([1]; day 11, 30 mg/kg p.o. qd, Mean±SEM): 17.85 ± 0.80
- DAI score [1, 6]: 3.56 ± 0.82
- Weight of mice [1, 6]: 18.27 ± 0.91
- Weight of mice ([1]; day 13, 30 mg/kg p.o. qd, Mean±SEM): 19.21 ± 0.94
- DAI score [1, 7]: 3.00 ± 0.57
- Weight of mice [1, 7]: 20.16 ± 0.61
- Weight of mice ([1]; day 15, 30 mg/kg p.o. qd, Mean±SEM): 21.11 ± 0.58
- DAI score [1, 8]: 3.00 ± 0.96
- Weight of mice [1, 8]: 21.09 ± 0.53
- Weight of mice ([1]; day 17, 30 mg/kg p.o. qd, Mean±SEM): 20.58 ± 0.38
- DAI score [1, 9]: 3.52 ± 0.73
- Weight of mice [1, 9]: 19.59 ± 0.34
- Spleen index ([1]; ratio of spleen weight to body weight, 30 mg/kg p.o. qd, Mean±SEM): 4.04 ± 0.18

Structure (SMILES): O=C(Nc1nc2cccc(C3CCC4(CC3)CN(C(=O)[C@H]3CC3(F)F)C4)n2n1)[C@H]1CC1(F)F [Compound 8-6]
- IC50 (TYK2): 127 nM
- IC50 (JAK3): 7640 nM
- IC50 (JAK1): 14 nM
- IC50 (JAK2): 110 nM
